Measured values published in paper PMC5218480 (PLoS ONE, 2017).

Tested on: MV-4-11 cells
Experiment: Gene expression microarray analysis (Affymetrix PrimeView) and GSEA
Assay type: cell-based, human
Parameters: RFU PODN (11730768_x_at) / Fold change /veh PODN (11730768_x_at) / RFU LINC00158 (11744669_a_at) / Fold change /veh LINC00158 (11744669_a_at) / RFU DUSP10 (11751237_a_at) / Fold change /veh DUSP10 (11751237_a_at) / RFU ID3 (11757404_x_at) / Fold change /veh ID3 (11757404_x_at) / RFU PLEKHG5 (11737974_s_at) / Fold change /veh PLEKHG5 (11737974_s_at) / RFU LRRC4B (11730491_at) / Fold change /veh LRRC4B (11730491_at) / RFU GIMAP4 (11747438_a_at) / Fold change /veh GIMAP4 (11747438_a_at) / RFU KRT8 (11758183_x_at) / Fold change /veh KRT8 (11758183_x_at) / RFU CNN1 (11734310_a_at) / Fold change /veh CNN1 (11734310_a_at) / RFU VPS37D (11726825_at) / Fold change /veh VPS37D (11726825_at) / RFU C10orf10 (11716522_x_at) / Fold change /veh C10orf10 (11716522_x_at) / RFU KIR2DL2 /// KIR2DL4 /// KIR2DL5A /// KIR2DL5B /// KIR2DS1 /// KIR2DS2 /// KIR2DS3 /// KIR2DS4 /// KIR3DL3 /// KIR3DL3 /// KIR3DS1 (11738374_at) / Fold change /veh KIR2DL2 /// KIR2DL4 /// KIR2DL5A /// KIR2DL5B /// KIR2DS1 /// KIR2DS2 /// KIR2DS3 /// KIR2DS4 /// KIR3DL3 /// KIR3DL3 /// KIR3DS1 (11738374_at) / RFU C1QL1 (11718748_at) / Fold change /veh C1QL1 (11718748_at) / RFU TMPRSS4 (11747572_a_at) / Fold change /veh TMPRSS4 (11747572_a_at) / RFU HAMP (11756126_x_at) / Fold change /veh HAMP (11756126_x_at) / RFU RNFT2 (11725882_a_at) / Fold change /veh RNFT2 (11725882_a_at) / RFU NR4A2 (11747474_a_at) / Fold change /veh NR4A2 (11747474_a_at) / RFU ABCC12 (11746883_a_at) / Fold change /veh ABCC12 (11746883_a_at) / RFU TMEM136 (11760407_x_at) / Fold change /veh TMEM136 (11760407_x_at) / RFU CLDN22 /// WWC2 (11732394_at) / Fold change /veh CLDN22 /// WWC2 (11732394_at) / RFU HLA-DPB1 (11760878_x_at) / Fold change /veh HLA-DPB1 (11760878_x_at) / RFU SPINT1 (11716480_a_at) / Fold change /veh SPINT1 (11716480_a_at) / RFU GAP43 (11754022_s_at) / Fold change /veh GAP43 (11754022_s_at) / RFU A4GNT (11735810_at) / Fold change /veh A4GNT (11735810_at) / RFU PRB3 (11715151_x_at) / Fold change /veh PRB3 (11715151_x_at) / RFU TUBB4B (11761932_at) / Fold change /veh TUBB4B (11761932_at) / RFU CAPN14 (11732068_a_at) / Fold change /veh CAPN14 (11732068_a_at) / RFU TMCC2 (11721928_a_at) / Fold change /veh TMCC2 (11721928_a_at) / RFU IRGQ (11745062_a_at) / Fold change /veh IRGQ (11745062_a_at) / RFU FAM174B (11720279_a_at) / Fold change /veh FAM174B (11720279_a_at) / RFU TMPRSS4 (11748680_a_at) / Fold change /veh TMPRSS4 (11748680_a_at) / RFU FAM212B (11763350_a_at) / Fold change /veh FAM212B (11763350_a_at) / RFU PLEKHG5 (11743358_a_at) / Fold change /veh PLEKHG5 (11743358_a_at) / RFU ZSCAN30 (11745921_a_at) / Fold change /veh ZSCAN30 (11745921_a_at) / RFU CMKLR1 (11741424_a_at) / Fold change /veh CMKLR1 (11741424_a_at) / RFU LOC101060620 /// MAPK8IP1 (11723275_at) / Fold change /veh LOC101060620 /// MAPK8IP1 (11723275_at) / RFU SPTSSB (11747773_x_at) / Fold change /veh SPTSSB (11747773_x_at) / RFU PRSS12 (11739890_at) / Fold change /veh PRSS12 (11739890_at) / RFU BIN1 (11741810_x_at) / Fold change /veh BIN1 (11741810_x_at) / RFU WNT11 (11732464_a_at) / Fold change /veh WNT11 (11732464_a_at) / RFU C10orf10 (11716521_a_at) / Fold change /veh C10orf10 (11716521_a_at) / RFU C5orf56 (11738089_at) / Fold change /veh C5orf56 (11738089_at) / RFU CYB561 (11721691_x_at) / Fold change /veh CYB561 (11721691_x_at) / RFU ANKRD19P (11752326_a_at) / Fold change /veh ANKRD19P (11752326_a_at) / RFU OR2T12 /// OR2T33 /// OR2T8 (11738714_s_at) / Fold change /veh OR2T12 /// OR2T33 /// OR2T8 (11738714_s_at) / RFU VCAN (11748164_a_at) / Fold change /veh VCAN (11748164_a_at) / RFU JSRP1 (11732532_at) / Fold change /veh JSRP1 (11732532_at) / RFU KRTAP10-11 (11738290_x_at) / Fold change /veh KRTAP10-11 (11738290_x_at) / RFU MYO3A (11730013_a_at) / Fold change /veh MYO3A (11730013_a_at) / RFU EBF3 (11725865_a_at) / Fold change /veh EBF3 (11725865_a_at) / RFU CAMK2N1 (11719241_x_at) / Fold change /veh CAMK2N1 (11719241_x_at) / RFU C5orf56 (11738088_a_at) / Fold change /veh C5orf56 (11738088_a_at) / RFU OLFML3 (11715873_a_at) / Fold change /veh OLFML3 (11715873_a_at) / RFU LOC100653217 /// NTM (11731650_a_at) / Fold change /veh LOC100653217 /// NTM (11731650_a_at) / RFU MAPK11 (11762145_a_at) / Fold change /veh MAPK11 (11762145_a_at) / RFU FIZ1 (11724087_x_at) / Fold change /veh FIZ1 (11724087_x_at) / RFU OASL (11726364_x_at) / Fold change /veh OASL (11726364_x_at) / RFU SOX15 (11748057_x_at) / Fold change /veh SOX15 (11748057_x_at) / RFU CD79A (11719716_a_at) / Fold change /veh CD79A (11719716_a_at) / RFU HIST1H1D (11736915_at) / Fold change /veh HIST1H1D (11736915_at) / RFU CASKIN2 (11723855_a_at) / Fold change /veh CASKIN2 (11723855_a_at) / RFU LOC730098 (11760151_x_at) / Fold change /veh LOC730098 (11760151_x_at) / RFU OR4N2 (11742367_at) / Fold change /veh OR4N2 (11742367_at) / RFU PRRT2 (11749266_a_at) / Fold change /veh PRRT2 (11749266_a_at) / RFU SNX32 (11753110_a_at) / Fold change /veh SNX32 (11753110_a_at) / RFU CDHR5 (11726645_a_at) / Fold change /veh CDHR5 (11726645_a_at) / RFU RCAN1 (11760418_a_at) / Fold change /veh RCAN1 (11760418_a_at) / RFU FAM167A (11723789_a_at) / Fold change /veh FAM167A (11723789_a_at) / RFU FAM26E (11764081_at) / Fold change /veh FAM26E (11764081_at) / RFU ISYNA1 (11749810_s_at) / Fold change /veh ISYNA1 (11749810_s_at) / RFU ACY1 (11761880_at) / Fold change /veh ACY1 (11761880_at) / RFU 11764098_at / Fold change /veh 11764098_at / RFU SAMD14 (11745864_x_at) / Fold change /veh SAMD14 (11745864_x_at) / RFU NPB (11741838_a_at) / Fold change /veh NPB (11741838_a_at) / RFU TMPRSS6 (11731388_a_at) / Fold change /veh TMPRSS6 (11731388_a_at) / RFU KRTAP10-2 (11738614_at) / Fold change /veh KRTAP10-2 (11738614_at) / RFU ARHGAP8 /// PRR5-ARHGAP8 (11727945_x_at) / Fold change /veh ARHGAP8 /// PRR5-ARHGAP8 (11727945_x_at) / RFU KRTAP5-7 /// NADSYN1 (11734609_at) / Fold change /veh KRTAP5-7 /// NADSYN1 (11734609_at) / RFU RASL12 (11751679_a_at) / Fold change /veh RASL12 (11751679_a_at) / RFU CDKN2B (11736163_a_at) / Fold change /veh CDKN2B (11736163_a_at) / RFU PRF1 (11729649_at) / Fold change /veh PRF1 (11729649_at) / RFU, ZNF638 /// ZNF638-IT1 / Fold change vs veh, ZNF638 /// ZNF638-IT1 / RFU, PANK3 / Fold change vs veh, PANK3 / RFU, SH3YL1 / Fold change vs veh, SH3YL1 / RFU, ZEB2 / Fold change vs veh, ZEB2 / RFU, NRIP1 / Fold change vs veh, NRIP1 / RFU, PTTG1IP / Fold change vs veh, PTTG1IP / RFU, CAPN2 / Fold change vs veh, CAPN2 / RFU, MED14 / Fold change vs veh, MED14 / RFU, SNORA58 / Fold change vs veh, SNORA58 / RFU, C1orf63 / Fold change vs veh, C1orf63 / RFU, LRRFIP1 / Fold change vs veh, LRRFIP1 / RFU, NDUFAF7 / Fold change vs veh, NDUFAF7 / RFU, SLC12A2 / Fold change vs veh, SLC12A2 / RFU, IBTK / Fold change vs veh, IBTK / RFU, ESF1 / Fold change vs veh, ESF1 / Fold change vs veh, TMEM50B / RFU, TAOK1 / Fold change vs veh, TAOK1 / RFU, ACBD3 / Fold change vs veh, ACBD3 / RFU, TMA16 / Fold change vs veh, TMA16 / RFU, RWDD3 / Fold change vs veh, RWDD3 / RFU, BCAT1 / Fold change vs veh, BCAT1 / RFU, EDEM3 / Fold change vs veh, EDEM3 / RFU, TMEM33 / Fold change vs veh, TMEM33 / RFU, WDR75 / Fold change vs veh, WDR75 / RFU, AHCTF1 / Fold change vs veh, AHCTF1 / RFU, TFRC / Fold change vs veh, TFRC / RFU, ZDHHC17 / Fold change vs veh, ZDHHC17 / RFU, NOM1 / Fold change vs veh, NOM1 / RFU, ARL8B / Fold change vs veh, ARL8B / RFU, ZBTB11 / Fold change vs veh, ZBTB11 / RFU, TAMM41 / Fold change vs veh, TAMM41 / RFU, KIAA1704 /// LOC100996395 / Fold change vs veh, KIAA1704 /// LOC100996395 / RFU, ING1 / Fold change vs veh, ING1 / RFU, TRMT61B / Fold change vs veh, TRMT61B / RFU, FUBP3 / Fold change vs veh, FUBP3 / RFU, TP53 / Fold change vs veh, TP53 / RFU, TNKS2 / Fold change vs veh, TNKS2 / RFU, ZFP14 / Fold change vs veh, ZFP14 / RFU, ACTR2 / Fold change vs veh, ACTR2 / RFU, PPP3R1 / Fold change vs veh, PPP3R1 / RFU, PIK3R1 / Fold change vs veh, PIK3R1 / RFU, HNRNPA1 / Fold change vs veh, HNRNPA1 / RFU, RNF170 / Fold change vs veh, RNF170 / RFU, ZNF28 / Fold change vs veh, ZNF28 / RFU, RNGTT / Fold change vs veh, RNGTT / RFU, OGT / Fold change vs veh, OGT / RFU, BRD1 / Fold change vs veh, BRD1 / RFU, MARS / Fold change vs veh, MARS / RFU, ZNF655 / Fold change vs veh, ZNF655 / RFU, FAHD1 / Fold change vs veh, FAHD1 / RFU, BDP1 / Fold change vs veh, BDP1 / RFU, LRRCC1 / Fold change vs veh, LRRCC1 / RFU, ARID1A / Fold change vs veh, ARID1A / RFU, ZNF146 / Fold change vs veh, ZNF146 / RFU, ZNF330 / Fold change vs veh, ZNF330 / RFU, GPN3 / Fold change vs veh, GPN3 / RFU, C9orf123 / Fold change vs veh, C9orf123 / RFU, N4BP2L2 / Fold change vs veh, N4BP2L2 / RFU, ARFIP1 / Fold change vs veh, ARFIP1 / RFU, FAM179B / Fold change vs veh, FAM179B / RFU, BCL10 / Fold change vs veh, BCL10 / RFU, UHRF1BP1L / Fold change vs veh, UHRF1BP1L / RFU, BET1 / Fold change vs veh, BET1 / RFU, CNOT2 / Fold change vs veh, CNOT2 / RFU, ZNF268 / Fold change vs veh, ZNF268 / Fold change vs veh, ZNF507 / RFU, DGCR2 / Fold change vs veh, DGCR2 / RFU, WDSUB1 / Fold change vs veh, WDSUB1 / Fold change vs veh, HSP90B1 /// MIR3652 / RFU, ADSS / Fold change vs veh, ADSS / RFU, GK / Fold change vs veh, GK / RFU, ZNF148 / Fold change vs veh, ZNF148 / RFU, TAF9 / Fold change vs veh, TAF9 / RFU, SLC1A5 / Fold change vs veh, SLC1A5 / RFU, SLMO2 / Fold change vs veh, SLMO2 / RFU, ABCC4 / Fold change vs veh, ABCC4 / RFU, LOC101060439 /// RAP1B / Fold change vs veh, LOC101060439 /// RAP1B / RFU, RFX7 / Fold change vs veh, RFX7 / RFU, GTPBP10 / Fold change vs veh, GTPBP10 / RFU, CNEP1R1 / Fold change vs veh, CNEP1R1 / RFU, BIVM-ERCC5 /// ERCC5 / Fold change vs veh, BIVM-ERCC5 /// ERCC5 / RFU, ILF3 / Fold change vs veh, ILF3 / RFU 11762660_at / Fold change /veh 11762660_at / RFU VCAN (11757783_s_at) / Fold change /veh VCAN (11757783_s_at) / RFU DDX43 (11728927_at) / Fold change /veh DDX43 (11728927_at) / RFU KRT8 (11758188_x_at) / Fold change /veh KRT8 (11758188_x_at) / RFU NKD1 (11759106_at) / Fold change /veh NKD1 (11759106_at) / RFU SRD5A1 (11742802_a_at) / Fold change /veh SRD5A1 (11742802_a_at) / RFU TPSAB1 /// TPSB2 (11721975_s_at) / Fold change /veh TPSAB1 /// TPSB2 (11721975_s_at) / RFU GSTM3 (11746129_a_at) / Fold change /veh GSTM3 (11746129_a_at) / RFU IL23R (11737362_x_at) / Fold change /veh IL23R (11737362_x_at) / RFU TMEM51 (11727254_a_at) / Fold change /veh TMEM51 (11727254_a_at) / RFU PIWIL2 (11732686_x_at) / Fold change /veh PIWIL2 (11732686_x_at) / RFU ORM1 (11744905_x_at) / Fold change /veh ORM1 (11744905_x_at) / RFU CCDC152 (11743942_at) / Fold change /veh CCDC152 (11743942_at) / RFU ECM1 (11717891_a_at) / Fold change /veh ECM1 (11717891_a_at) / RFU IL23R (11748794_a_at) / Fold change /veh IL23R (11748794_a_at) / RFU TNFAIP8L3 (11732012_x_at) / Fold change /veh TNFAIP8L3 (11732012_x_at) / RFU MBOAT4 (11741988_at) / Fold change /veh MBOAT4 (11741988_at) / RFU 11764193_at / Fold change /veh 11764193_at / RFU TMEM53 (11763286_at) / Fold change /veh TMEM53 (11763286_at) / RFU MAGEB2 (11727129_at) / Fold change /veh MAGEB2 (11727129_at) / RFU TMEM200A (11744735_a_at) / Fold change /veh TMEM200A (11744735_a_at) / RFU CCDC152 (11751479_a_at) / Fold change /veh CCDC152 (11751479_a_at) / RFU FAM211A (11726209_a_at) / Fold change /veh FAM211A (11726209_a_at) / RFU RGS16 (11746705_a_at) / Fold change /veh RGS16 (11746705_a_at) / RFU VCAN (11755009_s_at) / Fold change /veh VCAN (11755009_s_at) / RFU RHOB (11743442_s_at) / Fold change /veh RHOB (11743442_s_at) / RFU RGS16 (11720943_a_at) / Fold change /veh RGS16 (11720943_a_at) / RFU RGS16 (11720944_at) / Fold change /veh RGS16 (11720944_at) / RFU, VPS4B / Fold change vs veh, VPS4B / RFU, CREB1 / Fold change vs veh, CREB1 / RFU, DNAJC13 / Fold change vs veh, DNAJC13 / RFU, GNAQ / Fold change vs veh, GNAQ / RFU, CDK5R1 / Fold change vs veh, CDK5R1 / RFU, ZRANB3 / Fold change vs veh, ZRANB3 / RFU, CUL4A / Fold change vs veh, CUL4A / RFU, CCNY / Fold change vs veh, CCNY / RFU, UFL1 / Fold change vs veh, UFL1 / RFU, COG3 / Fold change vs veh, COG3 / RFU, DIAPH2 / Fold change vs veh, DIAPH2 / RFU, SKA2 / Fold change vs veh, SKA2 / RFU, AFF3 / Fold change vs veh, AFF3 / RFU, LMF1 / Fold change vs veh, LMF1 / RFU, IPO11 / Fold change vs veh, IPO11 / RFU, DFFB / Fold change vs veh, DFFB / RFU, FOXP1 / Fold change vs veh, FOXP1 / RFU, CARD8 / Fold change vs veh, CARD8 / RFU, STRN3 / Fold change vs veh, STRN3 / RFU, ADK / Fold change vs veh, ADK / RFU, RASSF2 / Fold change vs veh, RASSF2 / RFU, WIPF1 / Fold change vs veh, WIPF1 / RFU, LARP1B / Fold change vs veh, LARP1B / RFU, RASA1 / Fold change vs veh, RASA1 / RFU, RB1 / Fold change vs veh, RB1 / RFU, PPFIA1 / Fold change vs veh, PPFIA1 / RFU, MAT2A / Fold change vs veh, MAT2A / RFU, CCT5 / Fold change vs veh, CCT5 / RFU, WDR92 / Fold change vs veh, WDR92 / RFU, CUX1 / Fold change vs veh, CUX1 / RFU, TTC7A / Fold change vs veh, TTC7A / RFU, TMEM135 / Fold change vs veh, TMEM135 / RFU, DEPTOR / Fold change vs veh, DEPTOR / RFU, CPM / Fold change vs veh, CPM / RFU, DNAJB6 / Fold change vs veh, DNAJB6 / RFU, CACNA2D3 / Fold change vs veh, CACNA2D3 / RFU, DTX4 / Fold change vs veh, DTX4 / RFU, TFCP2 / Fold change vs veh, TFCP2 / RFU, GMCL1 /// GMCL1P1 / Fold change vs veh, GMCL1 /// GMCL1P1 / RFU, AEBP2 / Fold change vs veh, AEBP2 / RFU, SNHG1 /// SNORD22 /// SNORD25 /// SNORD26 /// SNORD27 /// SNORD28 /// SNORD29 /// SNORD31 / Fold change vs veh, SNHG1 /// SNORD22 /// SNORD25 /// SNORD26 /// SNORD27 /// SNORD28 /// SNORD29 /// SNORD31 / Fold change (Aza/veh), C12orf56 (ProbeSet 11735607_a_at) / Fold change (ACY-1035/veh), C12orf56 (ProbeSet 11735607_a_at) / Fold change (Aza/veh), FGFR1OP (ProbeSet 11751329_s_at) / Fold change (ACY-1035/veh), FGFR1OP (ProbeSet 11751329_s_at) / Fold change (Aza/veh), VPS36 (ProbeSet 11739960_a_at) / Fold change (ACY-1035/veh), VPS36 (ProbeSet 11739960_a_at) / RFU SYPL1 (11715823_x_at) / Fold change /veh SYPL1 (11715823_x_at) / RFU IGFBP7 (11715501_s_at) / Fold change /veh IGFBP7 (11715501_s_at) / RFU REEP3 (11722064_at) / Fold change /veh REEP3 (11722064_at) / RFU IGLL1 (11728026_x_at) / Fold change /veh IGLL1 (11728026_x_at): dose or concentration left out as unconfirmed
Conditions: MV-4-11 cells, 48 hours

## Nc1ncn([C@@H]2O[C@H](CO)[C@@H](O)[C@H]2O)c(=O)n1 [azacitidine]
  Fold change /veh OR4N2 (11742367_at): 1.01
